Reference: article PMC5218480 (PLoS ONE, 2017)

Tested on: MV-4-11 cells
Experiment: Gene expression microarray analysis (Affymetrix PrimeView) and GSEA
Assay type: cell-based, human
Set-up: RFU PODN (11730768_x_at) / Fold change /veh PODN (11730768_x_at) / RFU LINC00158 (11744669_a_at) / Fold change /veh LINC00158 (11744669_a_at) / RFU DUSP10 (11751237_a_at) / Fold change /veh DUSP10 (11751237_a_at) / RFU ID3 (11757404_x_at) / Fold change /veh ID3 (11757404_x_at) / RFU PLEKHG5 (11737974_s_at) / Fold change /veh PLEKHG5 (11737974_s_at) / RFU LRRC4B (11730491_at) / Fold change /veh LRRC4B (11730491_at) / RFU GIMAP4 (11747438_a_at) / Fold change /veh GIMAP4 (11747438_a_at) / RFU KRT8 (11758183_x_at) / Fold change /veh KRT8 (11758183_x_at) / RFU CNN1 (11734310_a_at) / Fold change /veh CNN1 (11734310_a_at) / RFU VPS37D (11726825_at) / Fold change /veh VPS37D (11726825_at) / RFU C10orf10 (11716522_x_at) / Fold change /veh C10orf10 (11716522_x_at) / RFU KIR2DL2 /// KIR2DL4 /// KIR2DL5A /// KIR2DL5B /// KIR2DS1 /// KIR2DS2 /// KIR2DS3 /// KIR2DS4 /// KIR3DL3 /// KIR3DL3 /// KIR3DS1 (11738374_at) / Fold change /veh KIR2DL2 /// KIR2DL4 /// KIR2DL5A /// KIR2DL5B /// KIR2DS1 /// KIR2DS2 /// KIR2DS3 /// KIR2DS4 /// KIR3DL3 /// KIR3DL3 /// KIR3DS1 (11738374_at) / RFU C1QL1 (11718748_at) / Fold change /veh C1QL1 (11718748_at) / RFU TMPRSS4 (11747572_a_at) / Fold change /veh TMPRSS4 (11747572_a_at) / RFU HAMP (11756126_x_at) / Fold change /veh HAMP (11756126_x_at) / RFU RNFT2 (11725882_a_at) / Fold change /veh RNFT2 (11725882_a_at) / RFU NR4A2 (11747474_a_at) / Fold change /veh NR4A2 (11747474_a_at) / RFU ABCC12 (11746883_a_at) / Fold change /veh ABCC12 (11746883_a_at) / RFU TMEM136 (11760407_x_at) / Fold change /veh TMEM136 (11760407_x_at) / RFU CLDN22 /// WWC2 (11732394_at) / Fold change /veh CLDN22 /// WWC2 (11732394_at) / RFU HLA-DPB1 (11760878_x_at) / Fold change /veh HLA-DPB1 (11760878_x_at) / RFU SPINT1 (11716480_a_at) / Fold change /veh SPINT1 (11716480_a_at) / RFU GAP43 (11754022_s_at) / Fold change /veh GAP43 (11754022_s_at) / RFU A4GNT (11735810_at) / Fold change /veh A4GNT (11735810_at) / RFU PRB3 (11715151_x_at) / Fold change /veh PRB3 (11715151_x_at) / RFU TUBB4B (11761932_at) / Fold change /veh TUBB4B (11761932_at) / RFU CAPN14 (11732068_a_at) / Fold change /veh CAPN14 (11732068_a_at) / RFU TMCC2 (11721928_a_at) / Fold change /veh TMCC2 (11721928_a_at) / RFU IRGQ (11745062_a_at) / Fold change /veh IRGQ (11745062_a_at) / RFU FAM174B (11720279_a_at) / Fold change /veh FAM174B (11720279_a_at) / RFU TMPRSS4 (11748680_a_at) / Fold change /veh TMPRSS4 (11748680_a_at) / RFU FAM212B (11763350_a_at) / Fold change /veh FAM212B (11763350_a_at) / RFU PLEKHG5 (11743358_a_at) / Fold change /veh PLEKHG5 (11743358_a_at) / RFU ZSCAN30 (11745921_a_at) / Fold change /veh ZSCAN30 (11745921_a_at) / RFU CMKLR1 (11741424_a_at) / Fold change /veh CMKLR1 (11741424_a_at) / RFU LOC101060620 /// MAPK8IP1 (11723275_at) / Fold change /veh LOC101060620 /// MAPK8IP1 (11723275_at) / RFU SPTSSB (11747773_x_at) / Fold change /veh SPTSSB (11747773_x_at) / RFU PRSS12 (11739890_at) / Fold change /veh PRSS12 (11739890_at) / RFU BIN1 (11741810_x_at) / Fold change /veh BIN1 (11741810_x_at) / RFU WNT11 (11732464_a_at) / Fold change /veh WNT11 (11732464_a_at) / RFU C10orf10 (11716521_a_at) / Fold change /veh C10orf10 (11716521_a_at) / RFU C5orf56 (11738089_at) / Fold change /veh C5orf56 (11738089_at) / RFU CYB561 (11721691_x_at) / Fold change /veh CYB561 (11721691_x_at) / RFU ANKRD19P (11752326_a_at) / Fold change /veh ANKRD19P (11752326_a_at) / RFU OR2T12 /// OR2T33 /// OR2T8 (11738714_s_at) / Fold change /veh OR2T12 /// OR2T33 /// OR2T8 (11738714_s_at) / RFU VCAN (11748164_a_at) / Fold change /veh VCAN (11748164_a_at) / RFU JSRP1 (11732532_at) / Fold change /veh JSRP1 (11732532_at) / RFU KRTAP10-11 (11738290_x_at) / Fold change /veh KRTAP10-11 (11738290_x_at) / RFU MYO3A (11730013_a_at) / Fold change /veh MYO3A (11730013_a_at) / RFU EBF3 (11725865_a_at) / Fold change /veh EBF3 (11725865_a_at) / RFU CAMK2N1 (11719241_x_at) / Fold change /veh CAMK2N1 (11719241_x_at) / RFU C5orf56 (11738088_a_at) / Fold change /veh C5orf56 (11738088_a_at) / RFU OLFML3 (11715873_a_at) / Fold change /veh OLFML3 (11715873_a_at) / RFU LOC100653217 /// NTM (11731650_a_at) / Fold change /veh LOC100653217 /// NTM (11731650_a_at) / RFU MAPK11 (11762145_a_at) / Fold change /veh MAPK11 (11762145_a_at) / RFU FIZ1 (11724087_x_at) / Fold change /veh FIZ1 (11724087_x_at) / RFU OASL (11726364_x_at) / Fold change /veh OASL (11726364_x_at) / RFU SOX15 (11748057_x_at) / Fold change /veh SOX15 (11748057_x_at) / RFU CD79A (11719716_a_at) / Fold change /veh CD79A (11719716_a_at) / RFU HIST1H1D (11736915_at) / Fold change /veh HIST1H1D (11736915_at) / RFU CASKIN2 (11723855_a_at) / Fold change /veh CASKIN2 (11723855_a_at) / RFU LOC730098 (11760151_x_at) / Fold change /veh LOC730098 (11760151_x_at) / RFU OR4N2 (11742367_at) / Fold change /veh OR4N2 (11742367_at) / RFU PRRT2 (11749266_a_at) / Fold change /veh PRRT2 (11749266_a_at) / RFU SNX32 (11753110_a_at) / Fold change /veh SNX32 (11753110_a_at) / RFU CDHR5 (11726645_a_at) / Fold change /veh CDHR5 (11726645_a_at) / RFU RCAN1 (11760418_a_at) / Fold change /veh RCAN1 (11760418_a_at) / RFU FAM167A (11723789_a_at) / Fold change /veh FAM167A (11723789_a_at) / RFU FAM26E (11764081_at) / Fold change /veh FAM26E (11764081_at) / RFU ISYNA1 (11749810_s_at) / Fold change /veh ISYNA1 (11749810_s_at) / RFU ACY1 (11761880_at) / Fold change /veh ACY1 (11761880_at) / RFU 11764098_at / Fold change /veh 11764098_at / RFU SAMD14 (11745864_x_at) / Fold change /veh SAMD14 (11745864_x_at) / RFU NPB (11741838_a_at) / Fold change /veh NPB (11741838_a_at) / RFU TMPRSS6 (11731388_a_at) / Fold change /veh TMPRSS6 (11731388_a_at) / RFU KRTAP10-2 (11738614_at) / Fold change /veh KRTAP10-2 (11738614_at) / RFU ARHGAP8 /// PRR5-ARHGAP8 (11727945_x_at) / Fold change /veh ARHGAP8 /// PRR5-ARHGAP8 (11727945_x_at) / RFU KRTAP5-7 /// NADSYN1 (11734609_at) / Fold change /veh KRTAP5-7 /// NADSYN1 (11734609_at) / RFU RASL12 (11751679_a_at) / Fold change /veh RASL12 (11751679_a_at) / RFU CDKN2B (11736163_a_at) / Fold change /veh CDKN2B (11736163_a_at) / RFU PRF1 (11729649_at) / Fold change /veh PRF1 (11729649_at) / RFU, ZNF638 /// ZNF638-IT1 / Fold change vs veh, ZNF638 /// ZNF638-IT1 / RFU, PANK3 / Fold change vs veh, PANK3 / RFU, SH3YL1 / Fold change vs veh, SH3YL1 / RFU, ZEB2 / Fold change vs veh, ZEB2 / RFU, NRIP1 / Fold change vs veh, NRIP1 / RFU, PTTG1IP / Fold change vs veh, PTTG1IP / RFU, CAPN2 / Fold change vs veh, CAPN2 / RFU, MED14 / Fold change vs veh, MED14 / RFU, SNORA58 / Fold change vs veh, SNORA58 / RFU, C1orf63 / Fold change vs veh, C1orf63 / RFU, LRRFIP1 / Fold change vs veh, LRRFIP1 / RFU, NDUFAF7 / Fold change vs veh, NDUFAF7 / RFU, SLC12A2 / Fold change vs veh, SLC12A2 / RFU, IBTK / Fold change vs veh, IBTK / RFU, ESF1 / Fold change vs veh, ESF1 / Fold change vs veh, TMEM50B / RFU, TAOK1 / Fold change vs veh, TAOK1 / RFU, ACBD3 / Fold change vs veh, ACBD3 / RFU, TMA16 / Fold change vs veh, TMA16 / RFU, RWDD3 / Fold change vs veh, RWDD3 / RFU, BCAT1 / Fold change vs veh, BCAT1 / RFU, EDEM3 / Fold change vs veh, EDEM3 / RFU, TMEM33 / Fold change vs veh, TMEM33 / RFU, WDR75 / Fold change vs veh, WDR75 / RFU, AHCTF1 / Fold change vs veh, AHCTF1 / RFU, TFRC / Fold change vs veh, TFRC / RFU, ZDHHC17 / Fold change vs veh, ZDHHC17 / RFU, NOM1 / Fold change vs veh, NOM1 / RFU, ARL8B / Fold change vs veh, ARL8B / RFU, ZBTB11 / Fold change vs veh, ZBTB11 / RFU, TAMM41 / Fold change vs veh, TAMM41 / RFU, KIAA1704 /// LOC100996395 / Fold change vs veh, KIAA1704 /// LOC100996395 / RFU, ING1 / Fold change vs veh, ING1 / RFU, TRMT61B / Fold change vs veh, TRMT61B / RFU, FUBP3 / Fold change vs veh, FUBP3 / RFU, TP53 / Fold change vs veh, TP53 / RFU, TNKS2 / Fold change vs veh, TNKS2 / RFU, ZFP14 / Fold change vs veh, ZFP14 / RFU, ACTR2 / Fold change vs veh, ACTR2 / RFU, PPP3R1 / Fold change vs veh, PPP3R1 / RFU, PIK3R1 / Fold change vs veh, PIK3R1 / RFU, HNRNPA1 / Fold change vs veh, HNRNPA1 / RFU, RNF170 / Fold change vs veh, RNF170 / RFU, ZNF28 / Fold change vs veh, ZNF28 / RFU, RNGTT / Fold change vs veh, RNGTT / RFU, OGT / Fold change vs veh, OGT / RFU, BRD1 / Fold change vs veh, BRD1 / RFU, MARS / Fold change vs veh, MARS / RFU, ZNF655 / Fold change vs veh, ZNF655 / RFU, FAHD1 / Fold change vs veh, FAHD1 / RFU, BDP1 / Fold change vs veh, BDP1 / RFU, LRRCC1 / Fold change vs veh, LRRCC1 / RFU, ARID1A / Fold change vs veh, ARID1A / RFU, ZNF146 / Fold change vs veh, ZNF146 / RFU, ZNF330 / Fold change vs veh, ZNF330 / RFU, GPN3 / Fold change vs veh, GPN3 / RFU, C9orf123 / Fold change vs veh, C9orf123 / RFU, N4BP2L2 / Fold change vs veh, N4BP2L2 / RFU, ARFIP1 / Fold change vs veh, ARFIP1 / RFU, FAM179B / Fold change vs veh, FAM179B / RFU, BCL10 / Fold change vs veh, BCL10 / RFU, UHRF1BP1L / Fold change vs veh, UHRF1BP1L / RFU, BET1 / Fold change vs veh, BET1 / RFU, CNOT2 / Fold change vs veh, CNOT2 / RFU, ZNF268 / Fold change vs veh, ZNF268 / Fold change vs veh, ZNF507 / RFU, DGCR2 / Fold change vs veh, DGCR2 / RFU, WDSUB1 / Fold change vs veh, WDSUB1 / Fold change vs veh, HSP90B1 /// MIR3652 / RFU, ADSS / Fold change vs veh, ADSS / RFU, GK / Fold change vs veh, GK / RFU, ZNF148 / Fold change vs veh, ZNF148 / RFU, TAF9 / Fold change vs veh, TAF9 / RFU, SLC1A5 / Fold change vs veh, SLC1A5 / RFU, SLMO2 / Fold change vs veh, SLMO2 / RFU, ABCC4 / Fold change vs veh, ABCC4 / RFU, LOC101060439 /// RAP1B / Fold change vs veh, LOC101060439 /// RAP1B / RFU, RFX7 / Fold change vs veh, RFX7 / RFU, GTPBP10 / Fold change vs veh, GTPBP10 / RFU, CNEP1R1 / Fold change vs veh, CNEP1R1 / RFU, BIVM-ERCC5 /// ERCC5 / Fold change vs veh, BIVM-ERCC5 /// ERCC5 / RFU, ILF3 / Fold change vs veh, ILF3 / RFU 11762660_at / Fold change /veh 11762660_at / RFU VCAN (11757783_s_at) / Fold change /veh VCAN (11757783_s_at) / RFU DDX43 (11728927_at) / Fold change /veh DDX43 (11728927_at) / RFU KRT8 (11758188_x_at) / Fold change /veh KRT8 (11758188_x_at) / RFU NKD1 (11759106_at) / Fold change /veh NKD1 (11759106_at) / RFU SRD5A1 (11742802_a_at) / Fold change /veh SRD5A1 (11742802_a_at) / RFU TPSAB1 /// TPSB2 (11721975_s_at) / Fold change /veh TPSAB1 /// TPSB2 (11721975_s_at) / RFU GSTM3 (11746129_a_at) / Fold change /veh GSTM3 (11746129_a_at) / RFU IL23R (11737362_x_at) / Fold change /veh IL23R (11737362_x_at) / RFU TMEM51 (11727254_a_at) / Fold change /veh TMEM51 (11727254_a_at) / RFU PIWIL2 (11732686_x_at) / Fold change /veh PIWIL2 (11732686_x_at) / RFU ORM1 (11744905_x_at) / Fold change /veh ORM1 (11744905_x_at) / RFU CCDC152 (11743942_at) / Fold change /veh CCDC152 (11743942_at) / RFU ECM1 (11717891_a_at) / Fold change /veh ECM1 (11717891_a_at) / RFU IL23R (11748794_a_at) / Fold change /veh IL23R (11748794_a_at) / RFU TNFAIP8L3 (11732012_x_at) / Fold change /veh TNFAIP8L3 (11732012_x_at) / RFU MBOAT4 (11741988_at) / Fold change /veh MBOAT4 (11741988_at) / RFU 11764193_at / Fold change /veh 11764193_at / RFU TMEM53 (11763286_at) / Fold change /veh TMEM53 (11763286_at) / RFU MAGEB2 (11727129_at) / Fold change /veh MAGEB2 (11727129_at) / RFU TMEM200A (11744735_a_at) / Fold change /veh TMEM200A (11744735_a_at) / RFU CCDC152 (11751479_a_at) / Fold change /veh CCDC152 (11751479_a_at) / RFU FAM211A (11726209_a_at) / Fold change /veh FAM211A (11726209_a_at) / RFU RGS16 (11746705_a_at) / Fold change /veh RGS16 (11746705_a_at) / RFU VCAN (11755009_s_at) / Fold change /veh VCAN (11755009_s_at) / RFU RHOB (11743442_s_at) / Fold change /veh RHOB (11743442_s_at) / RFU RGS16 (11720943_a_at) / Fold change /veh RGS16 (11720943_a_at) / RFU RGS16 (11720944_at) / Fold change /veh RGS16 (11720944_at) / RFU, VPS4B / Fold change vs veh, VPS4B / RFU, CREB1 / Fold change vs veh, CREB1 / RFU, DNAJC13 / Fold change vs veh, DNAJC13 / RFU, GNAQ / Fold change vs veh, GNAQ / RFU, CDK5R1 / Fold change vs veh, CDK5R1 / RFU, ZRANB3 / Fold change vs veh, ZRANB3 / RFU, CUL4A / Fold change vs veh, CUL4A / RFU, CCNY / Fold change vs veh, CCNY / RFU, UFL1 / Fold change vs veh, UFL1 / RFU, COG3 / Fold change vs veh, COG3 / RFU, DIAPH2 / Fold change vs veh, DIAPH2 / RFU, SKA2 / Fold change vs veh, SKA2 / RFU, AFF3 / Fold change vs veh, AFF3 / RFU, LMF1 / Fold change vs veh, LMF1 / RFU, IPO11 / Fold change vs veh, IPO11 / RFU, DFFB / Fold change vs veh, DFFB / RFU, FOXP1 / Fold change vs veh, FOXP1 / RFU, CARD8 / Fold change vs veh, CARD8 / RFU, STRN3 / Fold change vs veh, STRN3 / RFU, ADK / Fold change vs veh, ADK / RFU, RASSF2 / Fold change vs veh, RASSF2 / RFU, WIPF1 / Fold change vs veh, WIPF1 / RFU, LARP1B / Fold change vs veh, LARP1B / RFU, RASA1 / Fold change vs veh, RASA1 / RFU, RB1 / Fold change vs veh, RB1 / RFU, PPFIA1 / Fold change vs veh, PPFIA1 / RFU, MAT2A / Fold change vs veh, MAT2A / RFU, CCT5 / Fold change vs veh, CCT5 / RFU, WDR92 / Fold change vs veh, WDR92 / RFU, CUX1 / Fold change vs veh, CUX1 / RFU, TTC7A / Fold change vs veh, TTC7A / RFU, TMEM135 / Fold change vs veh, TMEM135 / RFU, DEPTOR / Fold change vs veh, DEPTOR / RFU, CPM / Fold change vs veh, CPM / RFU, DNAJB6 / Fold change vs veh, DNAJB6 / RFU, CACNA2D3 / Fold change vs veh, CACNA2D3 / RFU, DTX4 / Fold change vs veh, DTX4 / RFU, TFCP2 / Fold change vs veh, TFCP2 / RFU, GMCL1 /// GMCL1P1 / Fold change vs veh, GMCL1 /// GMCL1P1 / RFU, AEBP2 / Fold change vs veh, AEBP2 / RFU, SNHG1 /// SNORD22 /// SNORD25 /// SNORD26 /// SNORD27 /// SNORD28 /// SNORD29 /// SNORD31 / Fold change vs veh, SNHG1 /// SNORD22 /// SNORD25 /// SNORD26 /// SNORD27 /// SNORD28 /// SNORD29 /// SNORD31 / Fold change (Aza/veh), C12orf56 (ProbeSet 11735607_a_at) / Fold change (ACY-1035/veh), C12orf56 (ProbeSet 11735607_a_at) / Fold change (Aza/veh), FGFR1OP (ProbeSet 11751329_s_at) / Fold change (ACY-1035/veh), FGFR1OP (ProbeSet 11751329_s_at) / Fold change (Aza/veh), VPS36 (ProbeSet 11739960_a_at) / Fold change (ACY-1035/veh), VPS36 (ProbeSet 11739960_a_at) / RFU SYPL1 (11715823_x_at) / Fold change /veh SYPL1 (11715823_x_at) / RFU IGFBP7 (11715501_s_at) / Fold change /veh IGFBP7 (11715501_s_at) / RFU REEP3 (11722064_at) / Fold change /veh REEP3 (11722064_at) / RFU IGLL1 (11728026_x_at) / Fold change /veh IGLL1 (11728026_x_at): dose or concentration left out as unconfirmed
Details: ProbeSet 11725885_a_at; LIST B

Nc1ccc(-c2cccs2)cc1NC(=O)c1ccc2c(c1)cc(C1CC1)n2CCN1CCOCC1 [ACY-1035]
Fold change vs veh, CNEP1R1: 1.08
